Measured values: ChEMBL document CHEMBL5214910, “Rational Design of Dipicolylamine-Containing Carbazole Amphiphiles Combined with Zn2+ as Potent Broad-Spectrum Antibacterial Agents with a Membrane-Disruptive Mechanism” (J Med Chem, 2021)
Values after ≈ are worked out from the molar mass of the structure shown. Active and inactive are the calls of the source. The calls are words filed in the database; no cut-off is given here.

Experiments:
Acinetobacter baumannii [1] = assay: Antibacterial activity against Acinetobacter baumannii ATCC 17978 assessed as inhibition of bacterial growth by measuring salt resistance incubated for 24 hrs in the presence of 12.5 ug/ml Zn2+ and 3220 ug/ml Na+ by Muller hinton broth based dilution assay; format: functional
Staphylococcus aureus [2] = assay: Antibacterial activity against Staphylococcus aureus ATCC 29213 assessed as inhibition of bacterial growth incubated for 24 hrs by Muller hinton broth based dilution assay; format: functional
Escherichia coli [3] = assay: Antibacterial activity Escherichia coli ATCC 25922 assessed as inhibition of bacterial growth incubated for 24 hrs in the presence of 12.5 ug/mL Zn2+ by Muller hinton broth based dilution assay; format: functional
Pseudomonas aeruginosa = assay: Antibacterial activity Pseudomonas aeruginosa ATCC 9027 assessed as inhibition of bacterial growth incubated for 24 hrs in the presence of 12.5 ug/mL Zn2+ by Muller hinton broth based dilution assay; format: functional
Acinetobacter baumannii [4] = assay: Antibacterial activity against Acinetobacter baumannii R2889 assessed as inhIbition of bacterial growth incubated for 24 hrs in the presence of 12.5 ug/mL Zn2+ by Muller hinton broth based dilution assay; format: functional
[5] = Hemolytic activity in rabbit RBC incubated for 1 hrs in the presence of 12.5 ug/mL Zn2+ by fluorescence based microplate reader assay; format: toxicity, cell-based, Oryctolagus cuniculus, Erythrocyte; conditions: rabbit red blood cells (erythrocytes)
Escherichia coli [6] = assay: Antibacterial activity Escherichia coli ATCC 25922 assessed as inhibition of bacterial growth incubated for 24 hrs in the presence of 50 ug/mL Zn2+ by Muller hinton broth based dilution assay; format: functional
Escherichia coli [7] = assay: Antibacterial activity Escherichia coli ATCC 25922 assessed as inhibition of bacterial growth incubated for 24 hrs in the presence of 6.25 ug/mL Zn2+ by Muller hinton broth based dilution assay; format: functional
Escherichia coli [8] = assay: Antibacterial activity Escherichia coli ATCC 25922 assessed as inhibition of bacterial growth incubated for 24 hrs in the presence of 0.39 ug/mL Zn2+ by Muller hinton broth based dilution assay; format: functional
Staphylococcus aureus [9] = assay: Antibacterial activity against Methicillin-resistant Staphylococcus aureus NCTC10442 assessed as inhibition of bacterial growth incubated for 24 hrs in the presence of 50 ug/mL Zn2+ by Muller hinton broth based dilution assay; format: functional
Staphylococcus aureus [10] = assay: Antibacterial activity against Methicillin-resistant Staphylococcus aureus NCTC10442 assessed as inhibition of bacterial growth incubated for 24 hrs in the presence of 6.25 ug/mL Zn2+ by Muller hinton broth based dilution assay; format: functional
Staphylococcus aureus [11] = assay: Antibacterial activity against Methicillin-resistant Staphylococcus aureus NCTC10442 assessed as inhibition of bacterial growth incubated for 24 hrs in the presence of 3.125 ug/mL Zn2+ by Muller hinton broth based dilution assay; format: functional
Staphylococcus aureus [12] = assay: Antibacterial activity against Staphylococcus aureus ATCC 29213 assessed as inhibition of bacterial growth incubated for 24 hrs in the presence of 25 ug/mL Zn2+ by Muller hinton broth based dilution assay; format: functional
Staphylococcus aureus [13] = assay: Antibacterial activity against Staphylococcus aureus ATCC 29213 assessed as inhibition of bacterial growth incubated for 24 hrs in the presence of 3.125 ug/mL Zn2+ by Muller hinton broth based dilution assay; format: functional
Staphylococcus aureus [14] = assay: Antibacterial activity against Staphylococcus aureus ATCC 29213 assessed as inhibition of bacterial growth by measuring salt resistance incubated for 24 hrs in the presence of 12.5 ug/ml Zn2+ and 24.3 ug/ml Mg2+ by Muller hinton broth based dilution assay; format: functional
Staphylococcus aureus [15] = assay: Antibacterial activity against Methicillin-resistant Staphylococcus aureus N315 assessed as inhibition of bacterial growth by measuring salt resistance incubated for 24 hrs in the presence of 12.5 ug/ml Zn2+ and 3220 ug/ml Na+ by Muller hinton broth based dilution assay; format: functional
Staphylococcus aureus [16] = assay: Antibacterial activity against Methicillin-resistant Staphylococcus aureus N315 assessed as inhibition of bacterial growth by measuring salt resistance incubated for 24 hrs in the presence of 12.5 ug/ml Zn2+ and 24.3 ug/ml Mg2+ by Muller hinton broth based dilution assay; format: functional
Staphylococcus aureus [17] = assay: Antibacterial activity against Methicillin-resistant Staphylococcus aureus NCTC10442 assessed as inhibition of bacterial growth by measuring salt resistance incubated for 24 hrs in the presence of 12.5 ug/ml Zn2+ and 100 ug/ml Ca2+ by Muller hinton broth based dilution assay; format: functional
Staphylococcus aureus [18] = assay: Antibacterial activity against Methicillin-resistant Staphylococcus aureus NCTC10442 assessed as inhibition of bacterial growth by measuring salt resistance incubated for 24 hrs in the presence of 12.5 ug/ml Zn2+ and 24.3 ug/ml Mg2+ by Muller hinton broth based dilution assay; format: functional
Escherichia coli [19] = assay: Antibacterial activity against Escherichia coli ATCC 25922 assessed as inhibition of bacterial growth by measuring salt resistance incubated for 24 hrs in the presence of 12.5 ug/ml Zn2+ and 3220 ug/ml Na+ by Muller hinton broth based dilution assay; format: functional
Escherichia coli [20] = assay: Antibacterial activity against Escherichia coli ATCC 25922 assessed as inhibition of bacterial growth by measuring salt resistance incubated for 24 hrs in the presence of 12.5 ug/ml Zn2+ and 24.3 ug/ml Mg2+ by Muller hinton broth based dilution assay; format: functional
[21] = Ratio of MIC for antibacterial activity against Acinetobacter baumannii ATCC 17978 to MIC for antibacterial activity against Acinetobacter baumannii ATCC 17978 in the presence of Zn2+; format: functional
[22] = Ratio of MIC for antibacterial activity against Acinetobacter baumannii R2889 to MIC for antibacterial activity against Acinetobacter baumannii R2889 in the presence of Zn2+; format: functional
Cell membrane [23] = assay: Disruption of cell membrane integrity in Staphylococcus aureus ATCC 29213 assessed as increase in fluorescence intensity at 2 times to 8 times of MIC measured for 1 hrs in the presence of 12.5 ug/ml Zn2+ by SYTOX green dye based assay; format: subcellular; conditions: DDE = dose-dependent effect
Cell membrane [24] = assay: Induction of cell membrane […] in Escherichia coli ATCC 25922 assessed as increase in fluorescence intensity at 2 times to 8 times of MIC measured for 1 hrs in the presence of 12.5 ug/ml Zn2+ by […] dye based assay; format: subcellular
Cell membrane [25] = assay: Disruption of cell membrane integrity in Staphylococcus aureus ATCC 29213 assessed as increase in red fluorescence at 8 times of MIC measured for 2 hrs in the presence of 12.5 ug/ml Zn2+ by PI and SYTO staining based assay
Lipopolysaccharide (LPS) [26] = assay: Displacement of BODIPY-TR-cadaverin from Pseudomonas aeruginosa Lipopolysaccharide at 1 times of MIC incubated for 30 mins by fluorescence based microplate reader analysis relative to control
Lipopolysaccharide (LPS) [27] = assay: Displacement of BODIPY-TR-cadaverin from Pseudomonas aeruginosa Lipopolysaccharide at 2 times of MIC incubated for 30 mins by fluorescence based microplate reader analysis relative to control
Lipopolysaccharide (LPS) [28] = assay: Displacement of BODIPY-TR-cadaverin from Pseudomonas aeruginosa Lipopolysaccharide at 8 times of MIC incubated for 30 mins by fluorescence based microplate reader analysis relative to control
Lipopolysaccharide (LPS) [29] = assay: Displacement of BODIPY-TR-cadaverin from Pseudomonas aeruginosa Lipopolysaccharide at 1 times of MIC incubated for 30 mins in the presence of 12.5 ug/ml Zn2+ by fluorescence based microplate reader analysis relative to control

Q: With `CC(C)=CCn1c2ccccc2c2c(OCC(O)CN(Cc3ccccn3)Cc3ccccn3)cccc21` (stereo not given) as the molecule, how does the MIC (Acinetobacter baumannii [1]) read?
A: 0.78 µg/mL

Q: And the MIC (Staphylococcus aureus [2])?
A: 3.12 µg/mL (≈ 6.17 µM)

Q: What about the MIC (Escherichia coli [3]) of the same molecule?
A: 1.56 µg/mL

Q: And the MIC (Pseudomonas aeruginosa)?
A: 3.12 µg/mL

Q: And the MIC (Acinetobacter baumannii [4])?
A: 1.56 µg/mL

Q: What about the HC50 at 1 h [5] of the same molecule?
A: > 200 µg/mL

Q: What about the MIC (Escherichia coli [6]) of the same molecule?
A: 1.56 µg/mL

Q: And the MIC (Escherichia coli [7])?
A: 1.56 µg/mL

Q: And the MIC (Escherichia coli [8])?
A: 6.25 µg/mL

Q: What about the MIC (Staphylococcus aureus [9]) of the same molecule?
A: 0.78 µg/mL

Q: What about the MIC (Staphylococcus aureus [10]) of the same molecule?
A: 0.78 µg/mL

Q: What about the MIC (Staphylococcus aureus [11]) of the same molecule?
A: 1.56 µg/mL

Q: What about the MIC (Staphylococcus aureus [12]) of the same molecule?
A: 1.56 µg/mL

Q: And the MIC (Staphylococcus aureus [13])?
A: 3.12 µg/mL

Q: What about the MIC (Staphylococcus aureus [14]) of the same molecule?
A: 1.56 µg/mL

Q: What about the MIC (Staphylococcus aureus [15]) of the same molecule?
A: 0.78 µg/mL

Q: What about the MIC (Staphylococcus aureus [16]) of the same molecule?
A: 1.56 µg/mL

Q: What about the MIC (Staphylococcus aureus [17]) of the same molecule?
A: 3.12 µg/mL

Q: What about the MIC (Staphylococcus aureus [18]) of the same molecule?
A: 1.56 µg/mL

Q: What about the MIC (Escherichia coli [19]) of the same molecule?
A: 3.12 µg/mL

Q: And the MIC (Escherichia coli [20])?
A: 3.12 µg/mL

Q: What about the Ratio [21] of the same molecule?
A: 2

Q: And the Ratio [22]?
A: 2

Q: And the Activity (Cell membrane [23])?
A: Dde

Q: And the Activity (Cell membrane [24])?
A: Active

Q: What about the Activity (Cell membrane [25]) of the same molecule?
A: Active

Q: What about the Activity (Lipopolysaccharide (LPS) [26]) of the same molecule?
A: -0.28%

Q: And the Activity (Lipopolysaccharide (LPS) [27])?
A: 0.19%

Q: What about the Activity (Lipopolysaccharide (LPS) [28]) of the same molecule?
A: 1.32%

Q: What about the Activity (Lipopolysaccharide (LPS) [29]) of the same molecule?
A: 20.8%
